Experimental data reported in patent US12662491B2 (Redona Therapeutics, Inc., priority 2020, dated 2026).

Target: T1, Zcchc11 enzyme (Homo sapiens, UniProt Q5TAX3)
T1 construct: made in house; host or cells: HEK293 cells (Zcchc11); E. coli Rosetta II (LIN28A)
T1 sequence (Q5TAX3 212-1420): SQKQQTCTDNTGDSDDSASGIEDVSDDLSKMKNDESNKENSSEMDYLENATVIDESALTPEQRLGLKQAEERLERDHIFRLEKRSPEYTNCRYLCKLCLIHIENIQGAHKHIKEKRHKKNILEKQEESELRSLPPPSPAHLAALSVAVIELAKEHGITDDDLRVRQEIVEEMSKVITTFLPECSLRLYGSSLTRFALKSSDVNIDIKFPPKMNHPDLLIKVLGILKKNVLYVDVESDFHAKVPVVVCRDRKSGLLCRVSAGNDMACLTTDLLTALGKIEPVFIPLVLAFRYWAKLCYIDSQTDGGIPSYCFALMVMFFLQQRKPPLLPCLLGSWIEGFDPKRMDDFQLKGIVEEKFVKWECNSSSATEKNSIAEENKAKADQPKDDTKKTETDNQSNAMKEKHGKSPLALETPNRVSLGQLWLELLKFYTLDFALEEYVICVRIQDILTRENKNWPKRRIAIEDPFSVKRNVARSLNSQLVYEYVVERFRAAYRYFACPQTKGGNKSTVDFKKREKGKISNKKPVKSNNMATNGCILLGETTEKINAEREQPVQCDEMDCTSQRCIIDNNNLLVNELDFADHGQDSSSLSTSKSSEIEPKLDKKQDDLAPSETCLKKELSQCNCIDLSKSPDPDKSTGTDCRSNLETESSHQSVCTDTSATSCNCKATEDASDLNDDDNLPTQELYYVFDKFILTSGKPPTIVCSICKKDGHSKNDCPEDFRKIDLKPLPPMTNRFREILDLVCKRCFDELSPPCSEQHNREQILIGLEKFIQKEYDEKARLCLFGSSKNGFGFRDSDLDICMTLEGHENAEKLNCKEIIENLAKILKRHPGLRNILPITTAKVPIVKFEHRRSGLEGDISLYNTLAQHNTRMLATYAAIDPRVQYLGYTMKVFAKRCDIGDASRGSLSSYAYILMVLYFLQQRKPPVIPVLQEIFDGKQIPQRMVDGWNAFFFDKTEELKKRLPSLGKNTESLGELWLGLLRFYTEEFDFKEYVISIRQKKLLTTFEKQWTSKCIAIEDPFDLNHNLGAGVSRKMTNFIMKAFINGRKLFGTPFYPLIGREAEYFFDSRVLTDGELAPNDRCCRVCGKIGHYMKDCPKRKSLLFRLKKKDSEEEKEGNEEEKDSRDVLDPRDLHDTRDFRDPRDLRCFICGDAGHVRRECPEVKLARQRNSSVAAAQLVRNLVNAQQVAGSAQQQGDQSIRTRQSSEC
Test: TUTase assay (Zcchc11 assay, Lin28a-dependent polyuridylation of pre-let-7)
Assay type: biochemical
Settings: Lin28a-dependent Zcchc11 (Z11) TUTase assay; read-out: Potency Lin28a-dep Z11 IC50
Outline: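 Human Zcchc11 residues 212-1420 (HEK293-expressed, MBP tag cleaved, C-terminal FLAG) at 0.2 nM, with 10 nM full-length human LIN28A and 2 nM 5′-fluorescein pre-let-7, preincubated with compound 30 min at room temperature. Reaction started with 5 uM UTP plus 4 nM 3′-rhodamine A20 quench probe; fluorescein loss read kinetically, IC50 from initial rates.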

Row | SMILES | IC50
1 | O=C(O)c1cn(-c2cc(F)cc(F)c2)c2cc(N3CCC[C@@H]3COc3ccccn3)c(F)cc2c1=O [Example 388, (R)-1-(3,5-difluorophenyl)-6-fluoro-4-oxo-7-(2-((pyridin-2-yloxy)methyl)pyrrolidin-1-yl)-1,4-dihydroquinoline-3-carboxylic acid] | 1000 to 10000 nM
2 | Cc1cc(C)cc(-n2cc(C(=O)O)c(=O)c3cc(F)c(N4CCC[C@@H]4COc4ccccn4)cc32)c1 [Example 389, (R)-1-(3,5-dimethylphenyl)-6-fluoro-4-oxo-7-(2-((pyridin-2-yloxy)methyl)pyrrolidin-1-yl)-1,4-dihydroquinoline-3-carboxylic acid] | 1000 to 10000 nM
3 | Cc1cccc(F)c1-n1cc(C(=O)O)c(=O)c2cc(F)c(N3CCC[C@@H]3COc3ccccn3)cc21 [Example 390, (R)-6-fluoro-1-(2-fluoro-6-methylphenyl)-4-oxo-7-(2-((pyridin-2-yloxy)methyl)pyrrolidin-1-yl)-1,4-dihydroquinoline-3-carboxylic acid] | 1000 to 10000 nM
4 | Cc1cc(-n2cc(C(=O)O)c(=O)c3cc(F)c(N4CCC[C@@H]4COc4ccccn4)cc32)ccc1O [Example 395, (R)-6-fluoro-1-(4-hydroxy-3-methylphenyl)-4-oxo-7-(2-((pyridin-2-yloxy)methyl)pyrrolidin-1-yl)-1,4-dihydroquinoline-3-carboxylic acid] | 1000 to 10000 nM
5 | O=C(O)c1cn(-c2cnccn2)c2cc(N3CCC[C@@H]3COc3ccccn3)c(F)cc2c1=O [Example 402, (R)-6-fluoro-4-oxo-1-(pyrazin-2-yl)-7-(2-((pyridin-2-yloxy)methyl)pyrrolidin-1-yl)-1,4-dihydroquinoline-3-carboxylic acid] | 1000 to 10000 nM
6 | O=C(O)c1cn(-c2ccc(OCCO)cc2)c2cc(N3CCC[C@@H]3COc3ccccn3)c(F)cc2c1=O [Example 405, (R)-6-fluoro-1-(4-(2-hydroxyethoxy)phenyl)-4-oxo-7-(2-((pyridin-2-yloxy)methyl)pyrrolidin-1-yl)-1,4-dihydroquinoline-3-carboxylic acid] | ≤ 1000 nM
7 | COCCOc1ccc(-n2cc(C(=O)O)c(=O)c3cc(F)c(N4CCC[C@@H]4COc4ccccn4)cc32)cc1 [Example 406, (R)-6-fluoro-1-(4-(2-methoxyethoxy)phenyl)-4-oxo-7-(2-((pyridin-2-yloxy)methyl)pyrrolidin-1-yl)-1,4-dihydroquinoline-3-carboxylic acid] | ≤ 1000 nM
8 | O=C(O)c1cn(-c2ccc(O)c(Cl)c2)c2cc(N3CCC[C@@H]3COc3ccccn3)c(F)cc2c1=O [Example 408, (R)-1-(3-chloro-4-hydroxyphenyl)-6-fluoro-4-oxo-7-(2-((pyridin-2-yloxy)methyl)pyrrolidin-1-yl)-1,4-dihydroquinoline-3-carboxylic acid] | ≤ 1000 nM
9 | O=C(O)c1cn(-c2ccc(O)c(Cl)c2)c2cc(N3CCC[C@@H]3COc3ccccn3)c(Cl)cc2c1=O [Example 409, (R)-6-chloro-1-(3-chloro-4-hydroxyphenyl)-4-oxo-7-(2-((pyridin-2-yloxy)methyl)pyrrolidin-1-yl)-1,4-dihydroquinoline-3-carboxylic acid] | ≤ 1000 nM
10 | O=C(O)c1cn(-c2ccc(O)nn2)c2cc(N3CCC[C@@H]3COc3ccccn3)c(F)cc2c1=O [Example 410, (R)-6-fluoro-1-(6-hydroxypyridazin-3-yl)-4-oxo-7-(2-((pyridin-2-yloxy)methyl)pyrrolidin-1-yl)-1,4-dihydroquinoline-3-carboxylic acid] | 1000 to 10000 nM

Continued, values first:

Row | IC50 | SMILES
11 | ≤ 1000 nM | Cc1cccc(-n2cc(C(=O)O)c(=O)c3cc(F)c(N4CCC[C@@H]4COc4ccccn4)cc32)c1 [Example 391, (R)-6-fluoro-4-oxo-7-(2-((pyridin-2-yloxy)methyl)pyrrolidin-1-yl)-1-(m-tolyl)-1,4-dihydroquinoline-3-carboxylic acid]
12 | ≤ 1000 nM | Cc1cccc(-n2cc(C(=O)O)c(=O)c3cc(F)c(N4CCC[C@@H]4COc4ccccn4)cc32)c1C [Example 392, (R)-1-(2,3-dimethylphenyl)-6-fluoro-4-oxo-7-(2-((pyridin-2-yloxy)methyl)pyrrolidin-1-yl)-1,4-dihydroquinoline-3-carboxylic acid]
13 | 1000 to 10000 nM | Cc1ccc(F)cc1-n1cc(C(=O)O)c(=O)c2cc(F)c(N3CCC[C@@H]3COc3ccccn3)cc21 [Example 393, (R)-6-fluoro-1-(5-fluoro-2-methylphenyl)-4-oxo-7-(2-((pyridin-2-yloxy)methyl)pyrrolidin-1-yl)-1,4-dihydroquinoline-3-carboxylic acid]
14 | 1000 to 10000 nM | Cc1ccc(-n2cc(C(=O)O)c(=O)c3cc(F)c(N4CCC[C@@H]4COc4ccccn4)cc32)c(C)c1 [Example 394, (R)-1-(2,4-dimethylphenyl)-6-fluoro-4-oxo-7-(2-((pyridin-2-yloxy)methyl)pyrrolidin-1-yl)-1,4-dihydroquinoline-3-carboxylic acid]
15 | 1000 to 10000 nM | Cc1cc(O)ccc1-n1cc(C(=O)O)c(=O)c2cc(F)c(N3CCC[C@@H]3COc3ccccn3)cc21 [Example 396, (R)-6-fluoro-1-(4-hydroxy-2-methylphenyl)-4-oxo-7-(2-((pyridin-2-yloxy)methyl)pyrrolidin-1-yl)-1,4-dihydroquinoline-3-carboxylic acid]
16 | 1000 to 10000 nM | Cc1c(F)cccc1-n1cc(C(=O)O)c(=O)c2cc(F)c(N3CCC[C@@H]3COc3ccccn3)cc21 [Example 397, (R)-6-fluoro-1-(3-fluoro-2-methylphenyl)-4-oxo-7-(2-((pyridin-2-yloxy)methyl)pyrrolidin-1-yl)-1,4-dihydroquinoline-3-carboxylic acid]
17 | 1000 to 10000 nM | COc1ccc(Cl)c(-n2cc(C(=O)O)c(=O)c3cc(F)c(N4CCC[C@@H]4COc4ccccn4)cc32)c1 [Example 398, (R)-1-(2-chloro-5-methoxyphenyl)-6-fluoro-4-oxo-7-(2-((pyridin-2-yloxy)methyl)pyrrolidin-1-yl)-1,4-dihydroquinoline-3-carboxylic acid]
18 | ≤ 1000 nM | COc1cccc(-n2cc(C(=O)O)c(=O)c3cc(F)c(N4CCC[C@@H]4COc4ccccn4)cc32)c1 [Example 399, (R)-6-fluoro-1-(3-methoxyphenyl)-4-oxo-7-(2-((pyridin-2-yloxy)methyl)pyrrolidin-1-yl)-1,4-dihydroquinoline-3-carboxylic acid]
19 | 1000 to 10000 nM | COc1ccc(F)c(-n2cc(C(=O)O)c(=O)c3cc(F)c(N4CCC[C@@H]4COc4ccccn4)cc32)c1 [Example 400, (R)-6-fluoro-1-(2-fluoro-5-methoxyphenyl)-4-oxo-7-(2-((pyridin-2-yloxy)methyl)pyrrolidin-1-yl)-1,4-dihydroquinoline-3-carboxylic acid]
20 | ≤ 1000 nM | COc1ccc(-n2cc(C(=O)O)c(=O)c3cc(F)c(N4CCC[C@@H]4COc4ccccn4)cc32)cc1 [Example 401, (R)-6-fluoro-1-(4-methoxyphenyl)-4-oxo-7-(2-((pyridin-2-yloxy)methyl)pyrrolidin-1-yl)-1,4-dihydroquinoline-3-carboxylic acid]
21 | 1000 to 10000 nM | O=C(O)c1cn(-c2ccccc2CO)c2cc(N3CCC[C@@H]3COc3ccccn3)c(F)cc2c1=O [Example 403, (R)-6-fluoro-1-(2-(hydroxymethyl)phenyl)-4-oxo-7-(2-((pyridin-2-yloxy)methyl)pyrrolidin-1-yl)-1,4-dihydroquinoline-3-carboxylic acid]
22 | 1000 to 10000 nM | CCc1ccccc1-n1cc(C(=O)O)c(=O)c2cc(F)c(N3CCC[C@@H]3COc3ccccn3)cc21 [Example 404, (R)-1-(2-ethylphenyl)-6-fluoro-4-oxo-7-(2-((pyridin-2-yloxy)methyl)pyrrolidin-1-yl)-1,4-dihydroquinoline-3-carboxylic acid]
23 | 1000 to 10000 nM | COCc1ccccc1-n1cc(C(=O)O)c(=O)c2cc(F)c(N3CCC[C@@H]3COc3ccccn3)cc21 [Example 407, (R)-6-fluoro-1-(2-(methoxymethyl)phenyl)-4-oxo-7-(2-((pyridin-2-yloxy)methyl)pyrrolidin-1-yl)-1,4-dihydroquinoline-3-carboxylic acid]
